According to US20080090847A1, “HETEROCYCLIC COMPOUNDS AND USES THEREOF AS D-ALANYL-D-ALANINE LIGASE INHIBITORS” (PLIVA D.D., priority 2001, published 2008):
Where two headings read alike, the source gives them in different places.

How the values were obtained:
Type in all cases: biochemical
[1] = biological target: Staph ligase (D-Ala-D-Ala ligase) (Staphylococcus aureus, UniProt Q5HEB7); assay: D-Ala-D-Ala ligase Ki determination (PK/LDH coupled assay), Staph ligase
Source text: (§1) Inhibition of D-Ala-D-Ala ligase can be assayed for using the pyruvate kinase/lactate dehydrogenase (PK/LDH) assay described in Example 2, and as described in the literature (e.g., in Sarthy et al., Anal. Biochem., 254:288-290, 1997). In the bacterial cell wall synthesis process, the ligase catalyzes the conversion of adenosine triphosphate (ATP) to adenosine diphosphate (ADP) concurrent with the ligation of two D-alanine residues to form D-alanyl-D-alanine. PK then regenerates ATP from the ADP thus created simultaneously with the conversion of phosphopyruvate to pyruvate. LDH catalyzes the reduction of pyruvate to lactate by converting NADH to NAD^+. By monitoring the production rate of NAD^+ (e.g., using UV/Vis spectroscopy), D-Ala-D-Ala ligase activity can be ascertained.
(§2) The protein sequence for the enzyme D-ala-D-ala ligase has been determined in a variety of different bacterial species using standard techniques in biochemistry (see Table 5). The protein sequence from any species can be overexpressed in an appropriate host organism such as E. coli using standard molecular biology techniques. The ligase enzyme can be harvested, purified, and used in the above described assay for the determination of inhibitory activity.
(§3) The synthetic analogs of Example 1 were dissolved in dimethylsulfoxide (DMSO) at a concentration of 100 mM on the day of screening, using a vortex mixer and sonication if necessary for dissolution. The solutions were kept at room temperature until screening was completed.
(§4) A 10 mM NADH (Sigma) stock solution was prepared freshly on the day of screening by dissolving 32 μmol NADH in 3.2 ml double-distilled water. The NADH solution was kept on ice. Stock solutions containing 50 mM phosphoenolpyruvate (PEP; Sigma), 500 μM HERMES, 30 mM adenosine triphosphate (ATP; Sigma), 200 mM D-alanine (Sigma), and 4× core buffer (i.e., 400 mM Hepes, 40 mM magnesium chloride, and 40 mM potassium chloride), were also stored on ice. A stock solution of pyruvate kinase/lactate dehydrogenase (PK/LDH) was also obtained from Sigma.
(§5) Table of Final concentrations are dependent on the type of screening:
(§6) For each set of test compounds, two 96-well plates were used: an inhibitor plate and an enzyme plate. The test compounds correspond to rows A-G of the plates. Adenosine (Sigma) dissolved in DMSO, used as a control, corresponds to row H of each plate.
(§7) The enzyme solution was allowed to equilibrate to 25° C.
(§8) Dilutions were prepared in the inhibitor plate as follows: 50 μl DMSO was added to each well of columns 1-11, rows A-G, of the inhibitor plate. 50 μl DMSO were added to each well of columns 1-11, row H. 100 μl of the 100 mM test solutions were added to column 12, rows A-G (i.e., the first compound in row A, the second compound in row B, and so on). 100 μl of a 100 mM Adenosine solution was added to column 12, row H.
(§9) 50 μl of the test solution was transferred from column 12 in each row to column 11 of the a same row, mixing the solution with the DMSO. 50 μl of solution was then transferred from column 11 in each row to column 10 in the same row, 50 μl from column 10 was transferred to column 9, and so on, down to column 2. No solution was transferred to column 1. Multichannel pipettors were used in making the serial dilution.
(§10) 120 μl of the enzyme solution was added to each well of the enzyme plate.
(§11) The substrate solutions were brought to 25° C.
(§12) The analogs and enzymes were then incubated at 25° C. Since the reactions were initiated in columns, the analog addition is also in columns. At t=0 minutes, 5 μl analog was transferred from each well of columns 1-4 of the inhibitor plate to the corresponding well of the enzyme plate. At t=4 minutes, 5 μl analog was transferred from each well of columns 5-8 of the inhibitor plate to the corresponding well of the enzyme plate. At t=8 minutes, 5 μl analog was transferred from each well of columns 9-12 of the inhibitor plate to the corresponding well of the enzyme plate. The inhibitor plate was then frozen. […]

[2] = tested on: T1, 4 ligases in the panel (D-Ala-D-Ala ligase); assay: Ligase panel statements (ligases not individually named)
T1 construct: rows headed: ligase panel activity (in words); other: text b65
Source text: as §1, §2, §3
(§13) A 10 mM NADH (Sigma) stock solution was prepared freshly on the day of screening by dissolving 32 μmol NADH in 3.2 ml double-distilled water. The NADH solution was kept on ice. […]
(§14) Plots of reaction rates vs. inhibitor concentration were generated using Kaleidograph®, and Ki values were determined after the data was fitted to the proper equation.

[3] = biological target: H. Influenzae ligase (D-Ala-D-Ala ligase) (Haemophilus influenzae, UniProt P44405); assay: D-Ala-D-Ala ligase Ki determination (PK/LDH coupled assay), H. influenzae ligase
Source text: as §1, §2, §3, §4, §5, §6, §7, §8, §9, §10, §11, §12

[4] = biological target: T2, Strep ligase (D-Ala-D-Ala ligase) (Streptococcus pneumoniae serotype 4, UniProt P0CB57); assay: D-Ala-D-Ala ligase Ki determination (PK/LDH coupled assay), Strep ligase
T2 sequence (P0CB57 1-347): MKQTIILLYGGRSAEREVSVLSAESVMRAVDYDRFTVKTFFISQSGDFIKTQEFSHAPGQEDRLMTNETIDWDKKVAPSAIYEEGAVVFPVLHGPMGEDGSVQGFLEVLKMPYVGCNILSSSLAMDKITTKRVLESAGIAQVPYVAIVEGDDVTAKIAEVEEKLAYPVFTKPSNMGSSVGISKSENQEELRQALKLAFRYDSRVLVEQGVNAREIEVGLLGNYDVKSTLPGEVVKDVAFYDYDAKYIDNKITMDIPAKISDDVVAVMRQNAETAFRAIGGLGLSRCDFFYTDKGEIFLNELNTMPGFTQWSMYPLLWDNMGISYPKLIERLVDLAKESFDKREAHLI
Source text: as §1, §2, §3, §4, §5, §6, §7, §8, §9, §10, §11, §12

[5] = biological target: E. coli ligase (D-Ala-D-Ala ligase) (Escherichia coli, UniProt P07862); assay: D-Ala-D-Ala ligase Ki determination (PK/LDH coupled assay), E. coli ligase
Source text: as §1, §2, §3, §4, §5, §6, §7, §8, §9, §10, §11, §12

[6] = biological target: T3, 4 ligases in the panel (D-Ala-D-Ala ligase); assay: Ligase panel statements (ligases not individually named); conditions: 3 of the 4 ligases; read-out: Ki's against 3 of the 4 ligases in the panel
T3 construct: rows headed: Ki's against 3 of the 4 ligases in the panel; other: text b65; 3 of the 4 ligases
Source text: as §1, §2, §3, §13, §14

[7] = Table 3, Ki/ATP, avg, read-out: Staph ligase Ki/ATP (uM) avg
[8] = Table 3, Ki/ATP, avg, read-out: H. Influenzae ligase Ki/ATP (uM) avg
[9] = Table 3, Ki/ATP, avg, read-out: Strep ligase Ki/ATP (uM) avg
[10] = E. coli ligase Ki/ATP (uM) avg, Table 3, Ki/ATP, avg

Sequence of H. Influenzae ligase (D-Ala-D-Ala ligase) (P44405 whole entry): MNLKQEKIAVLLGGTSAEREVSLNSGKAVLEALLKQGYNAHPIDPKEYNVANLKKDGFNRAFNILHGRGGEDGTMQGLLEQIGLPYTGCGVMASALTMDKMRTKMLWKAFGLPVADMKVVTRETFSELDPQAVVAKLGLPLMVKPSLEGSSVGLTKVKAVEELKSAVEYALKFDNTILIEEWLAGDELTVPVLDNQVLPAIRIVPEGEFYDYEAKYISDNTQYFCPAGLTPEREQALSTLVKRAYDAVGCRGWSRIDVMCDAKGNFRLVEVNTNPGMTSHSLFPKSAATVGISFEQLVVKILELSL
Sequence of Staph ligase (D-Ala-D-Ala ligase) (Q5HEB7 whole entry): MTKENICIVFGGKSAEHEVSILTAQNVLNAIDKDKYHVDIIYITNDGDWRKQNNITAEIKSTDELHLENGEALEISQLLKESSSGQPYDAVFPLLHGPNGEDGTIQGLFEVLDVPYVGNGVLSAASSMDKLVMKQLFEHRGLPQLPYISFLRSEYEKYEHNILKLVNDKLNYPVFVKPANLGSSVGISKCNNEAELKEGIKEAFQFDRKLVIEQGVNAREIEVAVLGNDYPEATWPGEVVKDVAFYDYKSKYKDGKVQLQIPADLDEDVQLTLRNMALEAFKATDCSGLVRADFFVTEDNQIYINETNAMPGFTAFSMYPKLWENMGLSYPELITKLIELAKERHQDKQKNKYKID

## CCOc1ccc2ccccc2c1CN(CCC(=O)NCc1ccc(N)cc1)c1ncc2c(N)nc(N)nc2n1
[1]; [7]
  Ki: 1.2 µM
[2]
  ligase panel activity (in words): potent against three ligase species
[3]; [8]
  Ki: 1.6 µM
[4]; [9]
  Ki: 1.6 µM
[5]; [10]
  Ki: 8.7 µM

## CCOc1ccc2ccccc2c1CN(CCC(=O)NCC(=N)N)c1ncc2c(N)nc(N)nc2n1
[1]; [7]
  Ki: 6.3 µM
[2]
  ligase panel activity (in words): activity similar to that of the first compound
[3]; [8]
  Ki: 0.6 µM
[4]; [9]
  Ki: 1.4 µM
[5]; [10]
  Ki: 1 µM

## CCOc1ccc2ccccc2c1CN(CCC(=O)NCc1cccc(CN)c1)c1ncc2c(N)nc(N)nc2n1
[1]; [7]
  Ki: 0.9 µM
[6]
  Ki: < 1 µM
[3]; [8]
  Ki: 0.4 µM
[4]; [9]
  Ki: 0.9 µM
[5]; [10]
  Ki: 5.3 µM

## CCOc1ccc2ccccc2c1CN(CC(O)C(=O)O)c1ncc2c(N)nc(N)nc2n1 (centres unmarked)
[1]; read-out: activity against Staph (ligase)
  Ki: 4.1 µM
[3]; read-out: activity against H. influenzae (ligase)
  Ki: 0.566 µM
[4]; read-out: activity against Strep (ligase)
  Ki: 2.6 µM
[5]; E. coli ligase potency
  Ki: 0.143 µM

## CCOc1ccc2ccccc2c1CN(CCC(=O)N1CCOCC1)c1ncc2c(N)nc(N)nc2n1
[1]; [7]
  Ki: 3.8 µM
[3]; [8]
  Ki: 1.3 µM
[4]; [9]
  Ki: 4.1 µM
[5]; [10]
  Ki: 1.9 µM
